Reference: patent US11279708B2, “Amidino- and amino-rocaglates as novel translation inhibitors and anticancer agents” (priority 2019, dated 2022)

Tests used:
[1] = target: T1, eIF4A1 (Oryctolagus cuniculus, UniProt P29562); assay: RNA pulldowns (RPDs) with biotinylated RNA baits in translation extracts; format: binding, Rabbit; details: 500 nM rocaglate, retic lysate
T1 construct: Rabbit reticulocyte lysates (Promega) were pre-incubated with 500 nM of the indicated compound; tissue Promega; host or cells: rabbit reticulocyte lysate
Description: To determine the ability of rocaglates to recruit eIF4A to RNA in translation extracts, RNA pulldowns (RPDs) using 30 nt polypurine—or polypyrimidine-biotinylated RNA baits were performed. RNA baits were added to in vitro translation extracts in the presence or absence of rocaglate followed by purification using immobilized streptavidin. […] When the RPDs were performed using ApppG-capped RNA with purified eIF4A1 or eIF4F rather than translation extracts, an increase in eIF4A1:polypyrimidine RNA association with silvestrol was not observed (FIG. 25B).
RNA Pull Down (RPD) Experiments. Rabbit reticulocyte lysates (Promega) were pre-incubated with 500 nM of the indicated compound for 15 minutes at 30° C. prior to the addition of m7GpppG- or ApppG-capped biotinylated RNAs (added to a final concentration of 1 μM biotinylated RNA bait). The reactions were incubated for an additional 15 minutes at 30° C. and then diluted 10× with ice cold wash buffer (0.5% v/v NP-40, 50 mM HEPES (pH 7.3), 150 mM KCl, 2 mM EDTA, 2 mM MgC2,). Magnetic streptavidin beads (NEB) were used to capture the biotinylated RNA baits and the reactions were incubated end over end for 1 hour at 4° C. The beads were then washed three times with ice cold wash buffer (10 minutes per wash) and the RNA bound proteins were eluted by digesting with 50 U of RNaseI (Ambion, AM2294) for 15 minutes at 37° C. Eluted proteins were analyzed by Western blotting.
FIGS. 25A-25B. […] 25A. RPDs performed with the indicated m^7GpppG- or ApppG-capped RNA species incubated in the presence of retic lysate and either vehicle or 500 nM rocaglate. 25B. RPDs performed with m^7GpppG-capped RNA species incubated in the presence of recombinant eIF4A (125 nM) eIF4F or Krebs-2 extracts and either vehicle or 500 nM silvestrol.

[2] = target: T2, eIF4F (Mus musculus, UniProt P60843); assay: trans-inhibition and eIF4F rescue in Krebs-2 translation extracts; format: biochemical; details: for effect of added eIF4F on compound-induced inhibition (in words): 100 nM compound, eIF4F 10 nM; for effect of m7GpppG-(AG)10 competitor RNA on (UC)10-FF/HCV/Ren translation (in words): 25-fold molar excess competitor
T2 construct: endogenous in cells; host or cells: Krebs-2 cell-free translation extract
Source text: In addition to a primary effect on translation of the target mRNA to which eIF4F is clamped by the rocaglate, this retention is predicted to lead to a reduction in the limiting eIF4F pool available for ribosome recruitment and could exert a trans-inhibitory effect on mRNAs that are not directly-targeted by rocaglates (i.e., absence of polypurine regions in their 5′ leader regions). To test this, we programmed in vitro translation reactions with (UC)10-FF/HCV/Ren mRNA which we found to be unresponsive to CR-1-31-B (23) and RocA (2) (FIG. 22). These were then supplemented with a 25-fold molar excess m^7GpppG-(AG)10 (SEQ ID NO: 10) or ApppG-(AG)10 (SEQ ID NO: 11) competitor RNA (FIG. 30B). […] In contrast, addition of ApppG-(AG)10 (SEQ ID NO: 11) and CR-1-31-B (23) or RocA (2) had little impact on translation of (UC)10-FF/HCV/Ren mRNA, indicating this to be a cap-dependent phenomenon (FIG. 30C, blue dotted line). If rocaglates decrease the pool of active eIF4F complexes, we posit that the addition of eIF4F to translation extracts should rescue rocaglate-mediated inhibition.
FIGS. 30A-30B. Rocaglates exert effects on eIF4F activity. 30A. RPDs performed with m^7GpppG-capped RNA incubated in the presence of retic lysate and either vehicle or 500 nM rocaglate. 30B. Schematic diagram showing assay assessing trans-inhibition of rocaglates. 30C. The presence of m^7GpppG capped, but not ApppG capped, purine-rich RNAs sensitizes the rocaglate-unresponsive m^7GpppG(UC)10-FF/HCV/Ren reporter to inhibition. Translation reactions were performed in Krebs-2 extracts with 10 nM of m^7GpppG(UC)10-FF/HCV/Ren reporter and 250 nM of competitor RNA. Reactions were incubated at 30° C. for 60 min prior to luciferase measurement. n=3±SD. 30D. The addition of recombinant eIF4F rescues rocaglate mediated translation inhibition. The m^7GpppG(AG)10-FF/HCV/Ren reporter was added to Krebs-2 translation extracts in the presence eIF4F and 100 nM of the indicated compound. Reactions were incubated at 30° C. for 60 min prior to luciferase measurement. n≥3, ±SEM

T1 sequence (P29562 whole entry): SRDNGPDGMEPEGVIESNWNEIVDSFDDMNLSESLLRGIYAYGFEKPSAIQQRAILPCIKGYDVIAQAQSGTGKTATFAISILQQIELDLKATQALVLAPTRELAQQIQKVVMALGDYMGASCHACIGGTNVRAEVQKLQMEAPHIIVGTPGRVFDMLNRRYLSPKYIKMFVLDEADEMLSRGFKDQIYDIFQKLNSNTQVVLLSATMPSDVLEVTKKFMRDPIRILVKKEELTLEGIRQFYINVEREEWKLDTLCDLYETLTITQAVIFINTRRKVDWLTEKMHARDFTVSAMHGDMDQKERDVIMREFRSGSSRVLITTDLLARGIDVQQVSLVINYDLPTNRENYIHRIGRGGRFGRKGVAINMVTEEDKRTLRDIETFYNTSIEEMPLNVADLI
T2 sequence (P60843 2-406 limits assumed): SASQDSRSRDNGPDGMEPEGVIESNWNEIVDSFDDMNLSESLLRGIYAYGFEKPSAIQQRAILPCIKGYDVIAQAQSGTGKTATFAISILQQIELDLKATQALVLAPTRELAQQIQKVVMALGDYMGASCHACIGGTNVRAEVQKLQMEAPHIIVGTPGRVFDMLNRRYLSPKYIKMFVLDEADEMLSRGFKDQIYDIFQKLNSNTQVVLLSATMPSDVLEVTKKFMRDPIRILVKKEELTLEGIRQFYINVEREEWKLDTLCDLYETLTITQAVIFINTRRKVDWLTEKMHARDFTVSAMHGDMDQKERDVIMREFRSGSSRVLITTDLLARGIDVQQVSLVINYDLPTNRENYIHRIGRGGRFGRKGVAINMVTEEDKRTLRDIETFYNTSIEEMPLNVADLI
T2 sequence (P63073 2-217 partner limits assumed): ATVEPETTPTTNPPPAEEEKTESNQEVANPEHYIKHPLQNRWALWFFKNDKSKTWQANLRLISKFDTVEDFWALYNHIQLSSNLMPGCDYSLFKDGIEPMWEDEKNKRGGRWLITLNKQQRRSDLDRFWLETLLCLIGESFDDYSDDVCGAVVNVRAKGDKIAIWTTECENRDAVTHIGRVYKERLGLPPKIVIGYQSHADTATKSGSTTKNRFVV
T2 sequence (Q6NZJ6 whole entry partner): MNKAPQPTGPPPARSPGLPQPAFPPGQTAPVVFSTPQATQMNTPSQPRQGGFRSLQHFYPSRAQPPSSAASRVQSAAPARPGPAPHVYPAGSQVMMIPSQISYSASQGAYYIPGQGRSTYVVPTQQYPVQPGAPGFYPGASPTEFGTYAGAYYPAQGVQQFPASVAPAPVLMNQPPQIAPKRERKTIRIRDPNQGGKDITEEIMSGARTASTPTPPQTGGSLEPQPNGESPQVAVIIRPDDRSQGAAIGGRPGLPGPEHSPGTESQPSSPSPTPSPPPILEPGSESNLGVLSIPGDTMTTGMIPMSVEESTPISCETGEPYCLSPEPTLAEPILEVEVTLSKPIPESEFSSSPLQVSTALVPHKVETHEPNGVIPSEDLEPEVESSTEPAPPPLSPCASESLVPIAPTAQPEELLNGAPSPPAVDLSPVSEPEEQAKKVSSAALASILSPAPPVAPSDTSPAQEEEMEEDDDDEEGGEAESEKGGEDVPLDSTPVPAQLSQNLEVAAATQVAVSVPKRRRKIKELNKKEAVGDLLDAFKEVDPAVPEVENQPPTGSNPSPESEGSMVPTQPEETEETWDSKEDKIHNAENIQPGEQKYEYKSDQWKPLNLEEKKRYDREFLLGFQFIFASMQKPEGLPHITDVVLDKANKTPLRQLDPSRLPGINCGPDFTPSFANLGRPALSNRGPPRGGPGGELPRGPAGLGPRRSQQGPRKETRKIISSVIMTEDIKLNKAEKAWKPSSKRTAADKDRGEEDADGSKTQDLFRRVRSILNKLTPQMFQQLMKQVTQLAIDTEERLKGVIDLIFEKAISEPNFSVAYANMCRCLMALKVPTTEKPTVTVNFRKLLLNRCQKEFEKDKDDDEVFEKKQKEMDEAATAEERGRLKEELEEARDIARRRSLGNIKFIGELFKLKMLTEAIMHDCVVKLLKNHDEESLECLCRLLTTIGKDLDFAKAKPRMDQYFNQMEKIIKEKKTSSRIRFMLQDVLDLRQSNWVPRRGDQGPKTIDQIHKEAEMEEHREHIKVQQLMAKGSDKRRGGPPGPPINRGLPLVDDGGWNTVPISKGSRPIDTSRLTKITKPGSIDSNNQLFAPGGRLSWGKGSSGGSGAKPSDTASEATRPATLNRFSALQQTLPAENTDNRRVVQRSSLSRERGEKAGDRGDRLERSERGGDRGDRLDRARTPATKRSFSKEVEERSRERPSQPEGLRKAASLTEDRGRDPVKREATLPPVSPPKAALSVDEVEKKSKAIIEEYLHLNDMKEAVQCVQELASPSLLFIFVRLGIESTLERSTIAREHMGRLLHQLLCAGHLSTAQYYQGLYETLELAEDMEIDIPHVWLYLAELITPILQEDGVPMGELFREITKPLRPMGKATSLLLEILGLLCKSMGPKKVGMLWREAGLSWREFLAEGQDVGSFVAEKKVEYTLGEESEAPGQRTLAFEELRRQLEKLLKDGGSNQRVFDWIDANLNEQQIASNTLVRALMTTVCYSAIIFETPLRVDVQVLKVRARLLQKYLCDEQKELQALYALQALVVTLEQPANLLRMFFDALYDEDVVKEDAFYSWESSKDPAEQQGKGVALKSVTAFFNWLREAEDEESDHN

| SMILES | recruitment of eIF4A1 to RNA baits (in words) [1] | effect of added eIF4F on compound-induced inhibition (in words) [2] | effect of m7GpppG-(AG)10 competitor RNA on (UC)10-FF/HCV/Ren translation (in words) [2] |
| --- | --- | --- | --- |
| CONC(=O)[C@H]1[C@@H](O)[C@@]2(O)c3c(OC)cc(OC)cc3O[C@@]2(c2ccc(OC)cc2)[C@@H]1c1ccccc1 [CR-1-31-B] | eIF4A1 was recruited to the purine-rich mRNA template in a cap-independent manner | partially rescue | sensitized (UC)10-FF/HCV/Ren mRNA to inhibition |
| COC(=O)[C@H]1[C@@H](O)[C@@]2(O)c3c(OC)cc(O[C@@H]4O[C@@H]([C@H](O)CO)CO[C@H]4OC)cc3O[C@@]2(c2ccc(OC)cc2)[C@@H]1c1ccccc1 [silvestrol] | induced eIF4A1 binding to both the polypurine and polypyrimidine baits | partially rescue | – |
| COc1ccc([C@@]23Oc4cc(OC)cc(OC)c4[C@]2(O)[C@H](O)[C@H](C(=O)N(C)C)[C@H]3c2ccccc2)cc1 [RocA, rocaglamide A] | eIF4A1 was recruited to the purine-rich mRNA template in a cap-independent manner | – | sensitized (UC)10-FF/HCV/Ren mRNA to inhibition |
